# Test results: patent US12667559B2, “Dihydronaphthyridinone compound, and preparation method therefor and medical use thereof” (GENFLEET THERAPEUTICS (SHANGHAI) INC., priority 2020, dated 2026)
# Assays:
# [1] = test system: L929 cells; assay: Inhibitory activity against TNF-α induced programmed necrosis of L929 cells (CellTiter-Glo); assay type: cell-based; conditions: Mus musculus, 30 ng/ml murine TNF-α and 15 μM Z-VAD, 6 hours, survival rate
# Description: (§1) The U937 cell line used in the following test examples is from ATCC, with the number of CRL-1593.2, batch number of 63479999, and the culture medium of RPMI-1640+10% FBS. The L929 cell line used in the following test examples is from ATCC, with the number of CCL-1, batch number of 70001022, and the culture medium of MEM+10% FBS+1% PS. The reagents used, and suppliers and article numbers thereof are as follows: RPMI-1640, Gibco, 11875-093; FBS, Gibco, 10099-141; Trypsin-EDTA, Gibco, 25200-072; PS, Gibco, 15140-122; CellTiter Glo, Progema, G7573; DMSO, VWR AMRESCO, 0231-500ML; TNF-α protein (human, recombinant), Peprotech, 300-01A; Q-VD-Oph, MCE, HY-12305; V-shaped bottom plate, Corning, 3894; 384 well low flange white flat bottom polystyrene TC-treated microplates, Corning, 3570; RIPK1, Eurofins, 16-022; MOPS, BDH, 441644J; EDTA, Sigma, E5134; myelin basic protein, Sigma, M1891-25.00 MG; magnesium acetate, Merck, DU008026; ATP (non-radioactive label), Sigma, A-7699; ATP (radioactive label), Hartmann Analytic, DU008054; phosphoric acid, Metlab, DU003000; Z-VAD: Shanghai Twochem Co., Ltd., YA02401.
# The compounds to be tested was dissolved in DMSO and prepared as a 10 mM stock solution, which was diluted 3.16 times with DMSO to form a series of concentration gradients, and then diluted 100 times with culture medium to make a working solution. 10,000 L929 cells/well were seeded on a 384-well white plate, and the corresponding concentration of compound was added to each well to mix with the cells uniformly. At the same time, 30 ng/ml murine TNF-α and 15 μM Z-VAD were added to induce programmed necrosis of the cells. The final concentration of DMSO was 0.2%, and the cells were placed in a 37° C., 5% CO2 incubator for further incubation for 6 hours. CellTiter-Glo reagent was used for detection. After the reaction was fully lysed, the chemiluminescence readings was detected by a microplate reader. The test results were calculated using the formula for survival rate: SR (%)=(RLU compound−RLU blank)/(RLU high control-RLU blank)×100%. The survival rate and the final concentration of the corresponding compound were plotted as a curve, and fitted using a four-parameter model to calculate the inhibitory IC50 of compounds on TNF-α-induced programmed cell necrosis.
# [2] = molecular target: T1, RIPK1 (Homo sapiens, UniProt Q13546); assay: Inhibitory activity against RIPK1 enzyme (33P-ATP, MBP substrate); assay type: biochemical; conditions: 36 nM RIPK1, 0.33 mg/ml MBP, 155 μM 33P-ATP, 2 hours, room temperature
# T1 construct: purchased Eurofins 16-022
# T1 sequence (Q13546 1-671): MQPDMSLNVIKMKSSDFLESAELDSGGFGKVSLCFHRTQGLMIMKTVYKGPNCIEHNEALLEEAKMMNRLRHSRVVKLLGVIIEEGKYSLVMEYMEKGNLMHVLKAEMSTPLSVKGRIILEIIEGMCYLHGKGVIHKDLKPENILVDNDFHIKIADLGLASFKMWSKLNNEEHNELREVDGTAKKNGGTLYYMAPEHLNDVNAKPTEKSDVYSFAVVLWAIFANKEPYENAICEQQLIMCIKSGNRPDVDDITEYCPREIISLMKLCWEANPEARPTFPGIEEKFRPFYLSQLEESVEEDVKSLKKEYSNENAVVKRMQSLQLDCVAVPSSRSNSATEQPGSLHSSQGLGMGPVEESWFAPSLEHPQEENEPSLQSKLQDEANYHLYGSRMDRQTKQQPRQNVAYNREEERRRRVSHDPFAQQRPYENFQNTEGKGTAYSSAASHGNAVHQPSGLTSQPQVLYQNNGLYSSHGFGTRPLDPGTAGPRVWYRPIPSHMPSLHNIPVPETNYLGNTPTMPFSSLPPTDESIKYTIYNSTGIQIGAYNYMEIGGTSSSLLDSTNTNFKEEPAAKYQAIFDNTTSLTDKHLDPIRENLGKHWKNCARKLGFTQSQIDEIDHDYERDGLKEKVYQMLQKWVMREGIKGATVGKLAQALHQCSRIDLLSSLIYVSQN
# Description: as §1
# The compounds to be tested was dissolved in DMSO to prepare a 10 mM stock solution, which was diluted 3.16 times with DMSO into a series of concentration gradients, and then diluted 50 times with MOPS buffer solution (pH 7.0) to prepare a working solution, which were mixed well with 36 nM RIPK1 (final concentration), and 0.33 mg/ml substrate MBP. 10 mM magnesium ions and 155 μM phosphorous 33 isotope-labeled ATP were added to the reaction. The final concentration of DMSO was 2%. After 2 hours of reaction at room temperature, phosphoric acid was added to stop the reaction. The final reaction system was processed and then detected with a liquid scintillation counter.
# [3] = test system: U937 cells; assay: Inhibitory activity against TNF-α induced programmed cell necrosis (U937 cells, CellTiter-Glo); assay type: cell-based, human; conditions: Homo sapiens, U-937, 48 h, U937 cells, human TNF-α and Q-VD-Oph induced necrosis, 48 hours, survival rate; read-out: U937 IC50
SMILES,IC50 [2] [nM],IC50 [1] [nM],IC50 [3] [nM]
"CC(=O)Nc1cn2nc(-c3cnc4c(c3)C(=O)N(Cc3cc(F)cc(F)c3OC3CCOCC3)CC4)ccc2n1 [Z2, N-(6-(6-(3,5-difluoro-2-((tetrahydro-2H-pyran-4-yl)oxy)benzyl)-5-oxo-5,6,7,8-tetrahydro-1,6-naphthyridin-3-yl)imidazo[1,2-b]pyridazin-2-yl)acetamide]",37,< 2.8,0.103
"CC(=O)Nc1cn2nc(-c3cnc4c(c3)C(=O)N(Cc3ccccc3OC(F)(F)F)CC4)ccc2n1 [Z5, N-(6-(5-oxo-6-(2-(trifluoromethoxy)benzyl)-5,6,7,8-tetrahydro-1,6-naphthyridin-3-yl)imidazo[1,2-b]pyridazin-2-yl)acetamide]",,8,46.7
"O=C(Nc1cn2nc(-c3cnc4c(c3)C(=O)N(Cc3ccccc3OC(F)(F)F)CC4)ccc2n1)C1CC1 [Z10, N-(6-(5-oxo-6-(2-(trifluoromethoxy)benzyl)-5,6,7,8-tetrahydro-1,6-naphthyridin-3-yl)imidazo[1,2-b]pyridazin-2-yl)cyclopropanecarboxamide]",56,2.4,5.9
"Nc1nc2cc(-c3cnc4c(c3)C(=O)N(Cc3cc(F)ccc3OC3CCCC3)CC4)ccn2n1 [Z45, 3-(2-amino-[1,2,4]triazolo[1,5-a]pyridyl-7-yl)-6-(2-(cyclopentyloxy)-5-fluorobenzyl)-7,8-dihydro-1,6-naphthyridin-5(6H)-one]",,1.3,0.2
"Nc1nc2cc(-c3cnc4c(c3)C(=O)N(Cc3cccnc3OC3CCCC3)CC4)ccn2n1 [Z47, 3-(2-amino-[1,2,4]triazole[1,5-a]pyridyl-7-yl)-6-((2-(cyclopentyloxy)pyridyl-3-yl)methyl)-7,8-dihydro-1,6-naphthyridin-5(6H)-one]",,5.1,3
"Cn1cc(-c2ccc(F)cc2CN2CCc3ncc(-c4ccn5nc(N)nc5c4)cc3C2=O)cn1 [Z51, 3-(2-amino-[1,2,4]triazolo[1,5-a]pyridyl-7-yl)-6-(5-fluoro-2-(1-methyl-1H-pyrazol-4-yl)benzyl)-7,8-dihydro-1,6-naphthyridin-5(6H)-one]",72,,24

# More lines, main results first:
IC50 [2] [nM],SMILES,IC50 [1] [nM],IC50 [3] [nM]
193,"C[C@H](c1ccc(F)cc1)n1cc(N2CCc3ncc(-c4ccn5nc(N)nc5c4)cc3C2=O)cn1 (single isomer, unassigned) [Z74]",2.3,3.8
34,"C[C@H](c1cc(F)ccc1-c1cnn(C)c1)N1CCc2ncc(-c3ccn4nc(N)nc4c3)cc2C1=O (single isomer, unassigned) [Z85]",13.4,4.3
33,Nc1nc2cc(-c3cnc4c(c3)C(=O)N(Cc3cc(F)cc(F)c3OC3CC3)CC4)ccn2n1 [Z69],3.7,1.4
50,Cc1c(-c2ccc(F)cc2CN2CCc3ncc(-c4ccn5nc(N)nc5c4)cc3C2=O)cnn1C [Z82],,23.4
